Measurements from the RepoRT retention time repository.

Experiment: HILIC, Waters ACQUITY UPLC BEH HILIC, 150 × 2.1 mm, 1.7 µm, 40 °C, 0.6 mL/min, estimated dead time 0.55 min; A: water + 0.1% formic acid + 20 mM ammonium formate, pH 3.5; B: acetonitrile + 0.1% formic acid, pH 3; gradient (min/%B) 0/95 0.1/95 4.6/80 5.5/50 7.0/50 7.1/95 7.2/95 7.3/95 7.4/95 7.5/95 7.6/95 7.7/95 7.8/95 12.50/95 12.65/95
Details: stereoisomer not certain

Row | SMILES | LC retention time [min]
1 | CN1CCCCC1C(=O)O (stereo not given) | 4.59
2 | CN(C)C(=N)N=C(N)N [1,1-Dimethylbiguanide (Metformin)] | 3.42
3 | CCCCCC=CC(=O)OC(CC(=O)[O-])C[N+](C)(C)C (stereo not given) [2-Octenoylcarnitine CAR(8:1)] | 4.2
4 | CCC(C)C(=O)OC(CC(=O)[O-])C[N+](C)(C)C (stereo not given) [2-methylbutyrylcarnitine] | 4.39
5 | CC(O)CC(=O)OC(CC(=O)[O-])C[N+](C)(C)C (stereo not given) [3-Hydroxybutyrylcarnitine CAR(4:0-OH)] | 5.4
6 | NC(N)=NCCCC(=O)O [4-Guanidinobutanoic acid] | 3.84
7 | C[N+](C)(C)CCCC(=O)[O-] [4-Trimethylammoniobutanoic acid (deoxycarnitine)] | 4.91
8 | NC(N)=NCCCC(N)C(=O)O (stereo not given) [Arginine] | 5.92
9 | C[N+](C)(C)CC(=O)[O-] [Betaine] | 4.78
10 | C=CC1=C(C)C(C=c2[nH]c(=Cc3[nH]c(C=C4NC(=O)C(C)=C4C=C)c(C)c3CCC(=O)O)c(CCC(=O)O)c2C)=NC1=O [Biliverdin] | 0.732
11 | CCCC(=O)OC(CC(=O)[O-])C[N+](C)(C)C (stereo not given) [Butyrylcarnitine] | 4.69
12 | C[N+](C)(C)CC(O)CC(=O)[O-] (stereo not given) [Carnitine] | 5.32
13 | C[N+](C)(C)CCO [Choline] | 3.97
14 | NC(=O)NCCCC(N)C(=O)O (stereo not given) [Citrulline] | 5.74
15 | CN(CC(=O)O)C(=N)N [Creatine] | 5.06
16 | CCCCCCCCCC(=O)OC(CC(=O)[O-])C[N+](C)(C)C (stereo not given) [Decanoylcarnitine CAR(10:0)] | 3.92
17 | NCCc1ccc(O)c(OS(=O)(=O)O)c1 [Dopamine-3-O-sulfate] | 1.07
18 | NCCc1ccc(OS(=O)(=O)O)c(O)c1 [Dopamine-4-O-sulfate] | 1.07
19 | C[N+](C)(C)CC(CC(=O)[O-])OC(=O)CCCC(=O)O (stereo not given) [Glutarylcarnitine CAR(5:0-DC)] | 5.1
20 | CCCCCC(=O)OC(CC(=O)[O-])C[N+](C)(C)C (stereo not given) [Hexanoylcarnitine CAR(6:0)] | 4.34
21 | O=C(O)CNC(=O)c1ccccc1 [Hippuric acid] | 1.16
22 | NC(N)=NCCCCC(N)C(=O)O (stereo not given) [Homoarginine] | 5.92
23 | CC(C)C(=O)OC(CC(=O)[O-])C[N+](C)(C)C (stereo not given) [Isobutyrylcarnitine] | 4.69
24 | CC(C)CC(=O)OC(CC(=O)[O-])C[N+](C)(C)C (stereo not given) [Isovalerylcarnitine] | 4.39
25 | CC(=O)OC(CC(=O)[O-])C[N+](C)(C)C [L-Acetylcarnitine CAR(2:0)] | 5.03

Row | SMILES | LC retention time [min]
26 | O=C(O)[C@@H]1CCCN1C(=O)[C@@H]1CCCN1 [L-prolyl-L-proline] | 5.4
27 | CCCCCCCCCCCC(=O)OC(CC(=O)[O-])C[N+](C)(C)C (stereo not given) [Lauroylcarnitine CAR(12:0)] | 3.97
28 | NCCCCC(N)C(=O)O (stereo not given) [Lysine] | 5.98
29 | CC(=O)NCCCNCCCCNCCCNC(C)=O [N1,N12-Diacetylspermine] | 6.1
30 | CC(=O)NCCCNCCCCN [N1-Acetylspermidine] | 5.99
31 | C[N+](C)(C)CCCCC(N)C(=O)[O-] [N6,N6,N6-Trimethyl-L-lysine] | 6.16
32 | CN(C)CC(=O)O [N,N-Dimethylglycine] | 4.64
33 | CC(=O)NCCCN1CCCC1=O [N-Acetylisoputreanine-gamma-lactam] | 1.83
34 | CC(=O)NCCCNCCCC(=O)O [N-Acetylisoputreanine] | 4.93
35 | CC(=O)NCCCCN [N-Acetylputrescine] | 4.4
36 | C[n+]1ccccc1 [N-Methylpyridinium] | 3.82
37 | CC(=O)NC(CCCCN)C(=O)O [N-alpha-acetyl-L-lysine] | 5.44
38 | CN1CCCC1C(=O)O (stereo not given) [N-methylproline] | 4.48
39 | NC(=O)c1cccnc1 [Niacinamide] | 1.07
40 | NC(=O)c1ccc[n+]([O-])c1 [Nicotinamide N-oxide] | 2.02
41 | O=C1CCC(c2cccnc2)N1 (stereo not given) [Norcotinine] | 1.6
42 | c1cncc(C2CCCN2)c1 (stereo not given) [Nornicotine] | 4.22
43 | CCCCCCCC(=O)OC(CC(=O)[O-])C[N+](C)(C)C (stereo not given) [Octanoylcarnitine CAR(C8:0)] | 4.13
44 | CCCCCCCCCCCCCCCC(=O)OC(CC(=O)[O-])C[N+](C)(C)C (stereo not given) [Palmitoylcarnitine CAR(C16:0)] | 3.78
45 | CC(C)(CO)C(O)C(=O)NCCC(=O)O (stereo not given) [Pantothenic acid] | 1.13
46 | C[N+](C)(C)CC(O)(CC(=O)[O-])C(=O)Cc1ccccc1 (stereo not given) [Phenylacetyl carnitine] | 4.47
47 | NCCc1ccccc1 [Phenylethylamine] | 2.91
48 | O=C(O)C1CCCCN1 (stereo not given) [Pipecolic acid] | 4.48
49 | C[N+]1(C)CCCC1C(=O)[O-] (stereo not given) [Proline Betaine] | 4.91

The remaining lines, values ahead:

Row | LC retention time [min] | SMILES
50 | 4.1 | Cn1cnc2c(ncn2C2OC(CO)C(O)C2O)c1=N (stereo not given) [1-Methyladenosine]
51 | 1.73 | Cn1c(N)nc2c(ncn2C2OC(CO)C(O)C2O)c1=O (stereo not given) [1-Methylguanosine]
52 | 6.35 | Cn1cnc(CC(N)C(=O)O)c1 (stereo not given) [1-Methylhistidine]
53 | 4.08 | C[n+]1cccc(C(N)=O)c1 [1-Methylnicotinamide]
54 | 0.69 | Nc1c(O)cccc1C(=O)O [3-Hydroxyanthranilic acid]
55 | 6.09 | Cn1cncc1CC(N)C(=O)O (stereo not given) [3-Methylhistidine]
56 | 1.3 | CSCC1OC(n2cnc3c(N)ncnc32)C(O)C1O (stereo not given) [5'-Methylthioadenosine]
57 | 2.19 | Cn1cnc2nc(N)[nH]c(=O)c21 [7-Methylguanine]
58 | 1.97 | Cn1c[n+](C2OC(CO)C(O)C2O)c2nc(N)[nH]c(=O)c21 (stereo not given) [7-Methylguanosine]
59 | 0.71 | CC(=O)Nc1ccc(O)cc1 [Acetaminophen]
60 | 1.75 | Nc1ncnc2c1ncn2C1OC(CO)C(O)C1O (stereo not given) [Adenosine]
61 | 4.57 | CC(N)C(=O)O (stereo not given) [Alanine]
62 | 6.1 | Cn1cncc1CC(NC(=O)CCN)C(=O)O (stereo not given) [Anserine]
63 | 5.91 | CN(C)C(N)=NCCC[C@H](N)C(=O)O [Asymmetric Dimethylarginine]
64 | 4.45 | C[N+](C)(C)CC(CC(=O)[O-])OC(=O)c1ccccc1 (stereo not given) [Benzoylcarnitine]
65 | 0.85 | Cn1c(=O)c2c(ncn2C)n(C)c1=O [Caffeine]
66 | 6.01 | NCCC(=O)NC(Cc1cnc[nH]1)C(=O)O (stereo not given) [Carnosine]
67 | 0.71 | CC12CCC(=O)C=C1CCC1C2C(O)CC2(C)C1CCC2(O)C(=O)CO (stereo not given) [Cortisol]
68 | 2.87 | CN1C(=O)CCC1c1ccc[n+]([O-])c1 (stereo not given) [Cotinine N-oxide]
69 | 1.4 | CN1C(=O)CCC1c1cccnc1 (stereo not given) [Cotinine]
70 | 2.51 | CN1CC(=O)NC1=N [Creatinine]
71 | 2.39 | Nc1ccnc(=O)[nH]1 [Cytosine]
72 | 5.06 | NC(=O)CCC(N)C(=O)O (stereo not given) [Glutamine]

Row | LC retention time [min] | SMILES
73 | 2.87 | CC(CCC(=O)NCC(=O)O)C1CCC2C3C(O)CC4CC(O)CCC4(C)C3CC(O)C12C (stereo not given) [Glycocholic Acid]
74 | 1.96 | CC(CCC(=O)NCC(=O)O)C1CCC2C3CCC4CC(O)CCC4(C)C3CC(O)C12C (stereo not given) [Glycodeoxycholic acid]
75 | 1.22 | CC(CCC(=O)NCC(=O)O)C1CCC2C3CCC4CC(O)CCC4(C)C3CCC12C (stereo not given) [Glycolithocholic acid]
76 | 1.85 | CC(CCC(=O)NCC(=O)O)C1CCC2C3C(O)CC4CC(O)CCC4(C)C3CCC12C (stereo not given) [Glycoursodeoxycholic acid]
77 | 2.17 | Nc1nc2nc[nH]c2c(=O)[nH]1 [Guanine]
78 | 6.15 | NC(Cc1cnc[nH]1)C(=O)O (stereo not given) [Histidine]
79 | 1.59 | O=c1[nH]cnc2nc[nH]c12 [Hypoxanthine]
80 | 3.76 | O=C(O)CCc1cnc[nH]1 [Imidazolepropionic acid]
81 | 1.61 | O=c1[nH]cnc2c1ncn2C1OC(CO)C(O)C1O (stereo not given) [Inosine]
82 | 4.11 | CSCCC(N)C(=O)O (stereo not given) [Methionine]
83 | 1.44 | Cn1cnc2c(ncn2C2OC(CO)C(O)C2O)c1=O (stereo not given) [N1-Methylinosine]
84 | 1.24 | Cn1cc(C(N)=O)ccc1=O [N1-methyl-2-pyridone-5-carboxamide]
85 | 1.5 | Cn1ccc(=O)c(C(N)=O)c1 [N1-methyl-4-pyridone-3-carboxamide]
86 | 1.9 | CN(C)c1nc2c(ncn2C2OC(CO)C(O)C2O)c(=O)[nH]1 (stereo not given) [N2,N2-Dimethylguanosine]
87 | 1.27 | CC(=O)Nc1ccn(C2OC(CO)C(O)C2O)c(=O)n1 (stereo not given) [N4-Acetylcytidine]
88 | 5.44 | CC(=O)NCCCC[C@H](N)C(=O)O [N6-Acetyl-L-lysine]
89 | 1.43 | CNc1ncnc2c1ncn2C1OC(CO)C(O)C1O (stereo not given) [N6-Methyladenosine]
90 | 1.81 | CC(=O)N[C@@H]1C(O)O[C@H](CO)[C@@H](O)[C@@H]1O (stereo partly drawn) [N-Acetyl-D-mannosamine]
91 | 2.32 | Nc1nc2ncc(C(O)C(O)CO)nc2c(=O)[nH]1 (stereo not given) [Neopterin]
92 | 4.14 | CN1CCCC1c1cccnc1 (stereo not given) [Nicotine]
93 | 3.2 | NC(Cc1ccc(OS(=O)(=O)O)cc1)C(=O)O (stereo not given) [O-Sulfotyrosine]
94 | 0.948 | Cn1c(=O)[nH]c2ncn(C)c2c1=O [Paraxanthine]
95 | 3.78 | NC(Cc1ccccc1)C(=O)O (stereo not given) [Phenylalanine]
